Results reported in patent publication US9321764B2, “Dihydro-pyrrolopyridinone inhibitors” (AbbVie Inc., priority 2013, dated 2016).

Key:
BRD4 (BDI_K57-E168) = molecular target: T1, BRD4 (BDI_K57-E168) (Homo sapiens, UniProt O60885); assay: TR-FRET bromodomain binding assay, first bromodomain of BRD4; conditions: His-tagged BD1, 100 nM Alexa647 probe; TR-FRET protocol A-E given per row
T1 construct: BD1: amino acids K57-E168; made in house
In short: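 Ki values come from IC50s (4-parameter logistic) corrected for probe Kd and concentration, normalised to no-compound and 1 μM unlabelled probe controls. Probe displacement by TR-FRET used 8 nM BD1 (K57-E168), 100 nM Alexa647 probe, 1 nM Eu-anti-His, 20 mM phosphate pH 6.0, 2% DMSO, 1 h, room temperature.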

[1] = test system: breast cancer cell line MX-1; assay: MX-1 cell line proliferation assay; format: cell-based; conditions: Homo sapiens, MX1, 72 h, MX-1 cells, 3-day proliferation assay, Cell Titer Glo; read-out: Cellular proliferation EC50
Description: The impact of compounds of the Examples on cancer cell proliferation was determined using the breast cancer cell line MX-1 (ATCC) in a 3-day proliferation assay and the data are reported in Table 1. MX-1 cells were maintained in RPMI 1640 medium (Sigma) supplemented with 10% FBS at 37° C. and an atmosphere of 5% CO2. For compound testing, MX-1 cells were plated in 96-well black bottom plates at a density of 5000 cells/well in 90 μL of culture media and incubated at 37° overnight to allow cell adhesion and spreading. Compound dilution series were prepared in DMSO via a 3-fold serial dilution from 3 mM to 0.1 μM. The DMSO dilution series were then diluted 1:100 in phosphate buffered saline, and 10 μL of the resulted solution were added to the appropriate wells of the MX-1 cell plate. The final compound concentrations in the wells were 3, 1, 0.3, 0.1, 0.03, 0.01, 0.003, 0.001, 0.0003 and 0.0001 μM.
Luminescence readings from the Cell Titer Glo assay were normalized to the DMSO treated cells and analyzed using the GraphPad Prism software with sigmoidal curve fitting to obtain EC50s. The minimum significant ratio (MSR) was determined to evaluate assay reproducibility (Eastwood et al., (2006) J Biomol Screen, 11: 253-261).

BRD4 (BDII_E352-M457) = molecular target: T2, BRD4 (BDII_E352-M457) (Homo sapiens, UniProt O60885); assay: TR-FRET bromodomain binding assay, second bromodomain of BRD4; conditions: His-tagged BD2, 30 nM Alexa647 probe; TR-FRET protocol A-E given per row
T2 construct: proliferation; Protocol; made in house
In short: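 His-tagged BRD4 BD2 ([…]) competed against an Alexa647-labelled BET-inhibitor probe in TR-FRET. Buffer was 20 mM sodium phosphate pH 6.0, 50 mM NaCl, 1 mM EDTA, 0.01% Triton X-100, 1 mM DTT, with method D DMSO series of 2.5 mM–800 nM (stock range). IC50 from 4-parameter fit, Ki from probe Kd and concentration.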

| SMILES | Ki (BRD4 (BDI_K57-E168)) | EC50 [1] | Ki (BRD4 (BDII_E352-M457)) |
| --- | --- | --- | --- |
| CCS(=O)(=O)Nc1ccc(OCC2CC2)c(-c2cn(C)c3c(=O)[nH]ccc23)c1C [Example 14, N-[4-(cyclopropylmethoxy)-2-methyl-3-(1-methyl-7-oxo-6,7-dihydro-1H-pyrrolo[2,3-c]pyridin-3-yl)phenyl]ethanesulfonamide] | 73 nM | 506 nM | 1340 nM |
| Cn1cc(-c2cc(S(C)(=O)=O)ccc2Oc2ccc(F)c(F)c2)c2cc[nH]c(=O)c21 [Example 19, 3-[2-(3,4-difluorophenoxy)-5-(methylsulfonyl)phenyl]-1-methyl-1,6-dihydro-7H-pyrrolo[2,3-c]pyridin-7-one] | 16 nM | 176 nM | 80 nM |
| Cn1cc(-c2cc(S(C)(=O)=O)ccc2OCC2CC2)c2cc[nH]c(=O)c21 [Example 20, 3-[2-(cyclopropylmethoxy)-5-(methylsulfonyl)phenyl]-1-methyl-1,6-dihydro-7H-pyrrolo[2,3-c]pyridin-7-one] | 18 nM | 181 nM | 165 nM |
| Cn1cc(-c2cc(S(C)(=O)=O)ccc2OC2CCOC2)c2cc[nH]c(=O)c21 (stereo not drawn) [Example 22, 1-methyl-3-[5-(methylsulfonyl)-2-(tetrahydrofuran-3-yloxy)phenyl]-1,6-dihydro-7H-pyrrolo[2,3-c]pyridin-7-one] | 15 nM | 384 nM | 120 nM |
| Cn1cc(-c2cc(S(C)(=O)=O)ccc2OCC2CCOC2)c2cc[nH]c(=O)c21 (stereo not drawn) [Example 23, 1-methyl-3-[5-(methylsulfonyl)-2-(tetrahydrofuran-3-ylmethoxy)phenyl]-1,6-dihydro-7H-pyrrolo[2,3-c]pyridin-7-one] | 13 nM | 256 nM | 117 nM |
| Cn1cc(-c2cc(S(C)(=O)=O)ccc2OC2CCOCC2)c2cc[nH]c(=O)c21 [Example 24, 1-methyl-3-[5-(methylsulfonyl)-2-(tetrahydro-2H-pyran-4-yloxy)phenyl]-1,6-dihydro-7H-pyrrolo[2,3-c]pyridin-7-one] | 17 nM | 231 nM | 89 nM |
| Cn1cc(-c2cc(S(C)(=O)=O)ccc2OC2CCCOC2)c2cc[nH]c(=O)c21 (stereo not drawn) [Example 26, 1-methyl-3-[5-(methylsulfonyl)-2-(tetrahydro-2H-pyran-3-yloxy)phenyl]-1,6-dihydro-7H-pyrrolo[2,3-c]pyridin-7-one] | 7 nM | 123 nM | 60 nM |
| Cn1cc(-c2cc(S(C)(=O)=O)ccc2OCC(C)(C)C)c2cc[nH]c(=O)c21 [Example 27, 3-[2-(2,2-dimethylpropoxy)-5-(methylsulfonyl)phenyl]-1-methyl-1,6-dihydro-7H-pyrrolo[2,3-c]pyridin-7-one] | 8 nM | 176 nM | 32 nM |
| Cn1cc(-c2cc(S(C)(=O)=O)ccc2OCC2CCC2)c2cc[nH]c(=O)c21 [Example 28, 3-[2-(cyclobutylmethoxy)-5-(methylsulfonyl)phenyl]-1-methyl-1,6-dihydro-7H-pyrrolo[2,3-c]pyridin-7-one] | 9.3 nM | 129 nM | 53 nM |
| Cn1cc(-c2cc(S(C)(=O)=O)ccc2OCC2(C)CC2)c2cc[nH]c(=O)c21 [Example 29, 1-methyl-3-{2-[(1-methylcyclopropyl)methoxy]-5-(methylsulfonyl)phenyl}-1,6-dihydro-7H-pyrrolo[2,3-c]pyridin-7-one] | 12 nM | 191 nM | 89 nM |
| Cn1cc(-c2cc(S(C)(=O)=O)ccc2OCC2COC2)c2cc[nH]c(=O)c21 [Example 30, 1-methyl-3-[5-(methylsulfonyl)-2-(oxetan-3-ylmethoxy)phenyl]-1,6-dihydro-7H-pyrrolo[2,3-c]pyridin-7-one] | 45 nM | > 3000 nM | 312 nM |
| Cn1cc(-c2cc(S(C)(=O)=O)ccc2OCC2CCOCC2)c2cc[nH]c(=O)c21 [Example 31, 1-methyl-3-[5-(methylsulfonyl)-2-(tetrahydro-2H-pyran-4-ylmethoxy)phenyl]-1,6-dihydro-7H-pyrrolo[2,3-c]pyridin-7-one] | 21 nM | 398 nM | 87 nM |
| Cn1cc(-c2cc(S(C)(=O)=O)ccc2O[C@H]2CC[C@@H](O)CC2)c2cc[nH]c(=O)c21 [Example 33, 3-{2-[(cis-4-hydroxycyclohexyl)oxy]-5-(methylsulfonyl)phenyl}-1-methyl-1,6-dihydro-7H-pyrrolo[2,3-c]pyridin-7-one] | 34 nM | 716 nM | 274 nM |
| Cn1cc(-c2cc(S(C)(=O)=O)ccc2O[C@H]2CC[C@H](O)CC2)c2cc[nH]c(=O)c21 [Example 34, 3-{2-[(trans-4-hydroxycyclohexyl)oxy]-5-(methylsulfonyl)phenyl}-1-methyl-1,6-dihydro-7H-pyrrolo[2,3-c]pyridin-7-one] | 1.6 nM | 95 nM | 29 nM |
| Cn1cc(-c2cc(S(C)(=O)=O)ccc2OCCC(C)(C)C)c2cc[nH]c(=O)c21 [Example 40, 3-[2-(3,3-dimethylbutoxy)-5-(methylsulfonyl)phenyl]-1-methyl-1,6-dihydro-7H-pyrrolo[2,3-c]pyridin-7-one] | 23 nM | 87 nM | 64 nM |
| Cn1cc(-c2cc(S(C)(=O)=O)ccc2OCC2CCC(F)(F)CC2)c2cc[nH]c(=O)c21 [Example 41, 3-{2-[(4,4-difluorocyclohexyl)methoxy]-5-(methylsulfonyl)phenyl}-1-methyl-1,6-dihydro-7H-pyrrolo[2,3-c]pyridin-7-one] | 63 nM | 403 nM | 406 nM |
| Cn1cc(-c2cc(S(C)(=O)=O)ccc2OCC2CC2(F)F)c2cc[nH]c(=O)c21 (stereo not drawn) [Example 42, 3-{2-[(2,2-difluorocyclopropyl)methoxy]-5-(methylsulfonyl)phenyl}-1-methyl-1,6-dihydro-7H-pyrrolo[2,3-c]pyridin-7-one] | 13 nM | 221 nM | 79 nM |
| Cn1cc(-c2cc(S(C)(=O)=O)ccc2NCC2CC2)c2cc[nH]c(=O)c21 [Example 44, 3-{2-[(cyclopropylmethyl)amino]-5-(methylsulfonyl)phenyl}-1-methyl-1,6-dihydro-7H-pyrrolo[2,3-c]pyridin-7-one] | 14 nM | 136 nM | 89 nM |
| CN(CC1CC1)c1ccc(S(C)(=O)=O)cc1-c1cn(C)c2c(=O)[nH]ccc12 [Example 45, 3-{2-[(cyclopropylmethyl)(methyl)amino]-5-(methylsulfonyl)phenyl}-1-methyl-1,6-dihydro-7H-pyrrolo[2,3-c]pyridin-7-one] | 37 nM | 279 nM | 70 nM |
| Cn1cc(-c2cc(S(C)(=O)=O)ccc2NCc2ccc(C#N)cc2)c2cc[nH]c(=O)c21 [Example 46, 4-({[2-(1-methyl-7-oxo-6,7-dihydro-1H-pyrrolo[2,3-c]pyridin-3-yl)-4-(methylsulfonyl)phenyl]amino}methyl)benzonitrile] | 205 nM | 479 nM | 1090 nM |
| CCS(=O)(=O)c1ccc(Oc2ccc(Cl)cc2)c(-c2cn(C)c3c(=O)[nH]ccc23)c1 [Example 48, 3-[2-(4-chlorophenoxy)-5-(ethylsulfonyl)phenyl]-1-methyl-1,6-dihydro-7H-pyrrolo[2,3-c]pyridin-7-one] | 14 nM | 114 nM | 40 nM |
